Source: patent publication US20020115613A1, “Treatment of prostate cancer” (priority 2001, published 2002)
* marks the point of attachment. Cbz = O=C(OCc1ccccc1)*; CH2F = FC*

Key:
PC3AR cells = experiment: Induction of apoptosis / cell survival (FIG. 1E, 6A); assay type: cell-based; conditions: 5 μM hydroxyflutamide for 5 days, then 400 ng/ml TRAIL, FIG. 1E
Procedure: PC3AR cells are a clonal cell line derived by stable transfection of PC3 with a full-length human AR cDNA (Dai, J. L., et al., Steroids, 61, 531-539, 1996). PC3Neo cells were stably transfected with neomycin vector alone. Cells were grown in RPMI 1640 with 5% FBS (Hyclone, Logan, Utah), 100 units/ml penicillin, 100 μg/ml streptomycin, 0.25 μg/ml fungizone and G418 (350 μg/ml) to select for neomycin-resistant cells. In experiments using antiandrogens, cells were maintained in 5% DCC stripped serum for at least 48 hr before treatment with hydroxyflutamide (Sigma Chemical Co., St. Louis, Mo.). The medium and all the drugs were replaced every two days. Cells were treated with 200 ng/ml, 400 ng/ml or 600 ng/ml of TRAIL (Biomol Research Laboratories, Inc, Plymouth Meeting, Pa.) for 2, 4, 6, 8, 16 and 20 hr. Cells were treated with 5 μM hydroxyflutamide for 5 days before the commencement of treatment with 400 ng/ml TRAIL.
Two methods were used to measure induction of apoptosis by drug treatment: the MTT assay and the Apoptosense assay. The MTT assay measures mitochondrial enzyme activity and is indicative of the number of surviving cells. The Apoptosense assay is an ELISA, which utilizes M30 antibody to recognize the C-terminal domain (amino acids 387-396) of cytokeratin 18 that is exposed in apoptotic cells after cleavage by caspases.
Cells were seeded in 96-well plates (6000 cells/well) and treatment was started 24 hr after seeding the cells. After completion of the treatment, cells were incubated at 37° C. with the MTT reagent for 3 hr and processed according to manufacturers instructions (Promega Corporation, Madison, Wis.). Color development was measured at 490 nm on a Spectra MAX 340 microplate reader (Molecular Devices, Menlo Park, Calif.).

prostate cancer cells = conditions: cited from earlier work
LNCaP C4-2 cells = experiment: Western blotting of death receptors, caspases, Bid, cytochrome c, Akt; assay type: cell-based; conditions: LNCaP C4-2 treated with TRAIL and/or Mifepristone; inhibitor pre-treatment one hr; FIG. 7
Procedure: (§1) LNCaP were obtained from American Type Culture Collection (Rockville, Md.) and LNCaP C4-2 cells were purchased from Urocor Inc., Oklahoma City, Okla. Cells were grown in RPMI 1640 medium supplemented with 10% (LNCaP) or 5% (LNCaP C4-2) fetal bovine serum (Hyclone, Logan, Utah) and grown in the presence of 5% CO2 at 37° C. Cells were treated with 10 μM Mifepristone (Sigma, St. Louis, Mo.) for three days or with increasing concentrations (from 200 ng/ml to 600 ng/ml) of TRAIL (Biomol Research Laboratories, Inc., Plymouth Meetings, Pa.) for varying time intervals 2, 4, 6, 8, 16, 20 and 24 hours (hr). Thus, for treatment with Mifepristone, cells were treated with Mifepristone for three days and then some cells treated (without washing) with TRAIL for indicated periods. Upon completion of the experiment, cells were harvested, and total proteins, cytosol or mitochondrial fractions were isolated as described below. At least three experiments were conducted with a minimum of four plates per treatment per experiment.
(§2) For experiments using inhibitors, the cells were pre-treated with increasing concentrations of the inhibitors (10 μM to 100 μM) for one hr and then with TRAIL. Caspase-8-specific (Z-IETD-FMK) and caspase-9-specific ([…]) inhibitors were purchased from Enzyme Systems Products, Livermore, Calif. The inhibitors were dissolved in DMSO; to limit cellular toxicity, care was taken not to exceed 0.2% DMSO in the culture medium. Appropriate controls included vehicle treated cells with or without the inhibitors.
(§3) Cells were harvested by trypsinization, washed in 1×PBS and cell pellets resuspended in lysis buffer (100 mM Tris-HCl pH 8.0, 0.1% Triton X 100 and protease inhibitor cocktail from Roche Diagnostic Corporation, Indianapolis, Ind.). Cells were incubated over ice for 30 min and centrifuged at 10,000 g at 4° C. for 10 min. The supernatant was collected and the protein concentration estimated using Bio-Rad protein reagent (Bio-Rad Laboratories, Hercules, Calif.).
(§4) Proteins (50 μg, unless stated otherwise) were separated on NuPAGE 10% Bis-Tris gels (Novex pre-cast mini gels, InVitrogen, Carlsbad, Calif.) at 100 volts for 1 hour in the presence of 1×MES-SDS running buffer (InVitrogen, Carlsbad, Calif.). Separated proteins were transferred to (PVDF) membranes (Bio-Rad Laboratories, Hercules, Calif.) at 42 volts for 2.5 hr using a Novex XCell II blotting apparatus in MES transfer buffer in the presence of NuPAGE antioxidant. Transfer of the proteins to the polyvinylidene difluoride (PVDF) membrane was confirmed by staining with Ponceau S (Sigma, St. Louis, Mo.). The blots were blocked in 5% non-fat dry milk in TBS, washed twice for 10 min each with TBS containing 0.1% Tween-20 and incubated for 2 hr at RT with primary antibody diluted in TBS containing 0.5% milk.
(§5) The following antibodies were used in the immunoblots: DR4, DR5 and cytochrome c (Imgenex, San Diego, Calif.), BID (BioSource International, Camarillo, Calif.), caspases-8, -9, and Akt (Cell Signaling Technology, Beverely, Mass.), caspase-3 (BD Pharmingen, San Diego, Calif.) Iκβ and XIAP (Cell Signaling Technology, Beverly, Mass.), cFLIP (StressGen Biotechnology Corp, Victoria, Canada), actin (Sigma Chemical Co., St. Louis, Mo.) and Cox II (Molecular Probes, Eugene, Oreg.). Immunoreactive bands were visualized using ECL detection system (Amersham, Pharmacia Biotech, Arlington Heights, Ill.) and signals were developed after exposure to X-ray film (X-Omat films, Eastman Kodak Company, Rochester, N.Y.).
(§6) For separation of mitochondrial and cytosolic fractions, cells were trypsinized, centrifuged at 600 g for 10 min at 4° C., washed twice in ice-cold PBS and re-suspended in buffer A (20 mM HEPES-KOH, pH 7.2, 10 mM KCl, 1.5 mM MgC12, 1 mM sodium-EDTA, 1 mM sodium-EGTA, 250 mM sucrose and protease inhibitor cocktail). Cells were homogenized on ice with a glass Dounce homogenizer (30 strokes) and were centrifuged at 750 g for 5 min at 4° C. […]

LNCaP cells = experiment: as above; assay type: cell-based; conditions: LNCaP treated with TRAIL and/or Mifepristone; inhibitor pre-treatment one hr; FIG. 7
Procedure: as §1, §2, §3, §4, §5, §6

| Compound | effect of anti-androgen pre-treatment on response to TRAIL (PC3AR cells) | ability to induce apoptosis in prostate cancer cells (Sridhar et al., 2001) (prostate cancer cells) | caspase-3 activation in presence of caspase inhibitor (LNCaP C4-2 cells) | caspase-7 activation in presence of caspase inhibitor (LNCaP C4-2 cells) | caspase-8 activation in presence of caspase inhibitor (LNCaP C4-2 cells) | tBid in presence of caspase inhibitor (LNCaP C4-2 cells) | caspase-3 activation in presence of caspase inhibitor (LNCaP cells) | caspase-7 activation in presence of caspase inhibitor (LNCaP cells) | caspase-8 activation in presence of caspase inhibitor (LNCaP cells) | tBid in presence of caspase inhibitor (LNCaP cells) |
| --- | --- | --- | --- | --- | --- | --- | --- | --- | --- | --- |
| CC(C)(O)C(=O)Nc1ccc([N+](=O)[O-])c(C(F)(F)F)c1 [hydroxyflutamide, reference compound] | did not alter their response to TRAIL | – | – | – | – | – | – | – | – | – |
| CC/C(=C(\c1ccccc1)c1ccc(OCCN(C)C)cc1)c1ccccc1 [Tamoxifen] | – | marginal ability to induce apoptosis | – | – | – | – | – | – | – | – |
| Cbz-LEHD-CH2F | – | – | reduced caspase-3 activity | blocked activation of caspase-7 | did not affect caspase-8 activity | significantly reduced the levels of tBid | reduced caspase-3 activity | blocked activation of caspase-7 | did not affect caspase-8 activity | significantly reduced the levels of tBid |
| Cbz-IETD-CH2F | – | – | – | – | blocked activation of caspase-8 | tBid was not present | – | – | blocked activation of caspase-8 | tBid was not present |
